ChEMBL document CHEMBL3259567, “Novel 2,4-Diarylaminopyrimidine Analogues (DAAPalogues) Showing Potent c-Met/ALK Multikinase Inhibitory Activities” (ACS Med Chem Lett, 2014)
Each block holds one molecule with its values, some of them ahead of it. The source made the active and inactive calls. The rule behind the calls is not given here.

Experiments:
[1] = target: Hepatocyte growth factor receptor (Homo sapiens, UniProt P08581)
[2] = target: ALK tyrosine kinase receptor (Homo sapiens, UniProt Q9UM73)
[3] = target: D(1A) dopamine receptor (Homo sapiens, UniProt P21728); experiment: Antagonist activity at dopamine D1 receptor (unknown origin)
[4] = target: D(1B) dopamine receptor (Homo sapiens, UniProt P21918); experiment: Antagonist activity at dopamine D5 receptor (unknown origin)
[5] = target: Proto-oncogene tyrosine-protein kinase receptor Ret (Homo sapiens) (UniProt P07949); experiment: Inhibition of purified recombinant RET (unknown origin) at 1 uM after 60 mins by ELISA
[6] = target: Macrophage-stimulating protein receptor (Homo sapiens) (UniProt Q04912); experiment: Inhibition of purified recombinant RON (unknown origin) at 1 uM after 60 mins by ELISA
[7] = target: Proto-oncogene tyrosine-protein kinase Src (Homo sapiens) (UniProt P12931); experiment: Inhibition of purified recombinant c-SRC (unknown origin) at 1 uM after 60 mins by ELISA
[8] = target: Fibroblast growth factor receptor 1 (Homo sapiens) (UniProt P11362); experiment: Inhibition of purified recombinant FGFR1 (unknown origin) at 1 uM after 60 mins by ELISA
[9] = Half life in mouse at 10 mg/kg, iv; format: ADME, organism-based; parameters: dose 10 mg/kg, route intravenous; conditions: in vivo
[10] = Clearance in mouse at 10 mg/kg, iv; format: ADME, organism-based; parameters: dose 10 mg/kg, route intravenous; conditions: in vivo
[11] = AUC (0 to infinity) in mouse at 20 mg/kg, po; format: ADME, organism-based; parameters: time infinity, dose 20 mg/kg, route oral; conditions: plasma
[12] = Oral bioavailability in mouse at 20 mg/kg; format: ADME, organism-based; conditions: in vivo
[13] = system: BaF3; experiment: Antitumor activity against mouse BAF3 cells expressing EML4-ALK fusion protein allografted in nude mouse assessed as tumor growth inhibition at 0.3 to 1 mg/kg, po qd for 2 weeks relative to vehicle-treated control; format: functional, organism-based
[14] = cells; conditions: Homo sapiens, KARPAS-299, 72 h
Description: Antiproliferative activity against ALK-dependent human KARPAS299 cells after 72 hrs

[15] = system: BaF3; experiment: Antitumor activity against mouse BAF3 cells expressing EML4-ALK fusion protein allografted in nude mouse assessed as tumor growth inhibition at 1 mg/kg, po qd for 2 weeks relative to vehicle-treated control; format: functional; conditions: BaF3, 336 h, read-out: TGI
[16] = cells; conditions: Homo sapiens, EBC-1, 72 h
Description: Antiproliferative activity against cMET-amplified human EBC1 cells after 72 hrs

Sequence of Hepatocyte growth factor receptor (P08581 whole entry): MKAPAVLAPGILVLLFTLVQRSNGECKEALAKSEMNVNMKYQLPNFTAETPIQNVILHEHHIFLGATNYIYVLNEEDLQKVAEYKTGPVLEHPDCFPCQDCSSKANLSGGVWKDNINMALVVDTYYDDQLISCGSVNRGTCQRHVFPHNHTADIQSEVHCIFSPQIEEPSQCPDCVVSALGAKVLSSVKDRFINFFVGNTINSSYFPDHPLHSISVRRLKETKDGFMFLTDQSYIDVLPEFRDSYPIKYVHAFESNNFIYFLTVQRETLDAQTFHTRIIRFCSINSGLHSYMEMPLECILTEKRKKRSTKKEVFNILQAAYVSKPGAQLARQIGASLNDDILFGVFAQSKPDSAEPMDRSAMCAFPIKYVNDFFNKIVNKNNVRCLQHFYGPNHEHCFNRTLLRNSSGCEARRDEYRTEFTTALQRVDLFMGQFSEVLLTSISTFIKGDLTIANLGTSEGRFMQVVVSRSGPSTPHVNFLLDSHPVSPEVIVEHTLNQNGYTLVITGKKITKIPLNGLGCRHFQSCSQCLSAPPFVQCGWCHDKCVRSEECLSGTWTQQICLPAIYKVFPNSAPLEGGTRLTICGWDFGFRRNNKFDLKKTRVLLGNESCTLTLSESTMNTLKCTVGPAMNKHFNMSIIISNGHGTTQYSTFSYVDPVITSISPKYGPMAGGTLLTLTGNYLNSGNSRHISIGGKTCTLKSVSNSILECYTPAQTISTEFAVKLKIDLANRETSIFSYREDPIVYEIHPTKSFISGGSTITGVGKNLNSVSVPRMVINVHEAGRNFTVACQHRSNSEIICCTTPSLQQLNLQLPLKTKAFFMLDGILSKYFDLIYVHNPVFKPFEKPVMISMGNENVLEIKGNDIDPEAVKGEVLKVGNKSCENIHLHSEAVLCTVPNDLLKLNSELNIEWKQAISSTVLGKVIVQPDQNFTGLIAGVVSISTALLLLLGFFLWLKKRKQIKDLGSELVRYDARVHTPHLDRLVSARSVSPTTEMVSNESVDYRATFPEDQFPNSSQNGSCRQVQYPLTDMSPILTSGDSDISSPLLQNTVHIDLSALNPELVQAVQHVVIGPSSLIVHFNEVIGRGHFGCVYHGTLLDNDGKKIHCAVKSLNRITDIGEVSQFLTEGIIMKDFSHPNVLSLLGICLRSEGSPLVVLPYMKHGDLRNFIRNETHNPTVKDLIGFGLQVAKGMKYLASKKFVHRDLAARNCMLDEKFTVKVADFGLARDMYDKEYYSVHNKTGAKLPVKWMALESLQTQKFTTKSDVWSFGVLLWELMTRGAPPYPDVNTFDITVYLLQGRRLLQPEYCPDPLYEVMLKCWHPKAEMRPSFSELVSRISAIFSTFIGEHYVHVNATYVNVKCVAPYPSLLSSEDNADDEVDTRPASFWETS
Sequence of ALK tyrosine kinase receptor (Q9UM73 whole entry): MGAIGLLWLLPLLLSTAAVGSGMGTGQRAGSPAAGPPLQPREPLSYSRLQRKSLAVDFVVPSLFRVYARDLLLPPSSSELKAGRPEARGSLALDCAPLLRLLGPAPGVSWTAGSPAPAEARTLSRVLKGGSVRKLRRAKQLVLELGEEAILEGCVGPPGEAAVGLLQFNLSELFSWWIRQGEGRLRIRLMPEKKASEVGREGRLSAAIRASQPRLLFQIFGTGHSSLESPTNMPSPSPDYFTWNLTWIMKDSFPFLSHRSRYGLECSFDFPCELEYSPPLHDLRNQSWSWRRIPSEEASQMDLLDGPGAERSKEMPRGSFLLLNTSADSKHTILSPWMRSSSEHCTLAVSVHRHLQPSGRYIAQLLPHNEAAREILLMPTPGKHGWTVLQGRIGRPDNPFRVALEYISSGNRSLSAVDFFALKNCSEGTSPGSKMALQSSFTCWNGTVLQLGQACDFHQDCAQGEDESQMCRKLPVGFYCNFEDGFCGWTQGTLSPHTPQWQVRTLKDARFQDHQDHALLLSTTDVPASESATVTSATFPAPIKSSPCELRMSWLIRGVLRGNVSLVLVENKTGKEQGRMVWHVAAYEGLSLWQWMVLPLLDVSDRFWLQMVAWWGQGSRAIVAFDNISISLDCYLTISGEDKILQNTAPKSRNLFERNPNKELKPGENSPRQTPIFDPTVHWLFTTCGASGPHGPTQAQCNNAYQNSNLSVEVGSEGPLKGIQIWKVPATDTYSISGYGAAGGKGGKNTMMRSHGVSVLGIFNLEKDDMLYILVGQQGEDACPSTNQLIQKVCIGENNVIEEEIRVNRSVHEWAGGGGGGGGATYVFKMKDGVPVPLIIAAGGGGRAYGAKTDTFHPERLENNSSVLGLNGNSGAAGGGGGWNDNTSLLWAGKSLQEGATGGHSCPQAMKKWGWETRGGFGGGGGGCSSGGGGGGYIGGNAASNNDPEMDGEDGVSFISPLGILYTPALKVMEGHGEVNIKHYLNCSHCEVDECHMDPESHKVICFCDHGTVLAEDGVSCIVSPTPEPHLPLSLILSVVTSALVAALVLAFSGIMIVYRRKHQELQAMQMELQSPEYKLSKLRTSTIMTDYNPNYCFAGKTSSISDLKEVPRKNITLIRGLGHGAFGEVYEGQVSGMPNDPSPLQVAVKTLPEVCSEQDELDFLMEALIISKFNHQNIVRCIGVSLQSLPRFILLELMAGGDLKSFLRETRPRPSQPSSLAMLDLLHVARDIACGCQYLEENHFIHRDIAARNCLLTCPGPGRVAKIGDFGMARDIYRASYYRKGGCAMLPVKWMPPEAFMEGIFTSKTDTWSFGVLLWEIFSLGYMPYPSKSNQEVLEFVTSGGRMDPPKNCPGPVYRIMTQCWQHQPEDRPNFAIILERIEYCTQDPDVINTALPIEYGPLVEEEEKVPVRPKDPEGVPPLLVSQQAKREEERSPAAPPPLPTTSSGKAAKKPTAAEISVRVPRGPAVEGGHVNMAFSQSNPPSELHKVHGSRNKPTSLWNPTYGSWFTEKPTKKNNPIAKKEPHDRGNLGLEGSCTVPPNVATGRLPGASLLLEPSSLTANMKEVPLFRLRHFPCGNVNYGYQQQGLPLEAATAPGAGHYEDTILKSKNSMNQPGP
Sequence of Proto-oncogene tyrosine-protein kinase Src (Homo sapiens) (P12931 2-536 limits assumed): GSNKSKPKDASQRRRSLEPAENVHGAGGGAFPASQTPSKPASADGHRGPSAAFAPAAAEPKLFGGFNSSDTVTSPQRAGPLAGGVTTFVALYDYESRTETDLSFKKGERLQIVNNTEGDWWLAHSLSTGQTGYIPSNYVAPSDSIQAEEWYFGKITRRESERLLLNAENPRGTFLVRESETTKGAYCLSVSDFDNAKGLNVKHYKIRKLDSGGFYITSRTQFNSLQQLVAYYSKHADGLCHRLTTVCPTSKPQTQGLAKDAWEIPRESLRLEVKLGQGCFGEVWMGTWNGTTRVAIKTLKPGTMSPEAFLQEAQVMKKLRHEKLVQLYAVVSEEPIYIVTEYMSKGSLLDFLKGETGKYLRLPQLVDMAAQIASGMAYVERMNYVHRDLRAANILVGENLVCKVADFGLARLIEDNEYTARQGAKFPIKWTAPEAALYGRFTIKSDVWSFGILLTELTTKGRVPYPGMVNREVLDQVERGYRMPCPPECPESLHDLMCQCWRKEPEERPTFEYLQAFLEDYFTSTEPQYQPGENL
Sequence of Proto-oncogene tyrosine-protein kinase receptor Ret (Homo sapiens) (P07949 whole entry): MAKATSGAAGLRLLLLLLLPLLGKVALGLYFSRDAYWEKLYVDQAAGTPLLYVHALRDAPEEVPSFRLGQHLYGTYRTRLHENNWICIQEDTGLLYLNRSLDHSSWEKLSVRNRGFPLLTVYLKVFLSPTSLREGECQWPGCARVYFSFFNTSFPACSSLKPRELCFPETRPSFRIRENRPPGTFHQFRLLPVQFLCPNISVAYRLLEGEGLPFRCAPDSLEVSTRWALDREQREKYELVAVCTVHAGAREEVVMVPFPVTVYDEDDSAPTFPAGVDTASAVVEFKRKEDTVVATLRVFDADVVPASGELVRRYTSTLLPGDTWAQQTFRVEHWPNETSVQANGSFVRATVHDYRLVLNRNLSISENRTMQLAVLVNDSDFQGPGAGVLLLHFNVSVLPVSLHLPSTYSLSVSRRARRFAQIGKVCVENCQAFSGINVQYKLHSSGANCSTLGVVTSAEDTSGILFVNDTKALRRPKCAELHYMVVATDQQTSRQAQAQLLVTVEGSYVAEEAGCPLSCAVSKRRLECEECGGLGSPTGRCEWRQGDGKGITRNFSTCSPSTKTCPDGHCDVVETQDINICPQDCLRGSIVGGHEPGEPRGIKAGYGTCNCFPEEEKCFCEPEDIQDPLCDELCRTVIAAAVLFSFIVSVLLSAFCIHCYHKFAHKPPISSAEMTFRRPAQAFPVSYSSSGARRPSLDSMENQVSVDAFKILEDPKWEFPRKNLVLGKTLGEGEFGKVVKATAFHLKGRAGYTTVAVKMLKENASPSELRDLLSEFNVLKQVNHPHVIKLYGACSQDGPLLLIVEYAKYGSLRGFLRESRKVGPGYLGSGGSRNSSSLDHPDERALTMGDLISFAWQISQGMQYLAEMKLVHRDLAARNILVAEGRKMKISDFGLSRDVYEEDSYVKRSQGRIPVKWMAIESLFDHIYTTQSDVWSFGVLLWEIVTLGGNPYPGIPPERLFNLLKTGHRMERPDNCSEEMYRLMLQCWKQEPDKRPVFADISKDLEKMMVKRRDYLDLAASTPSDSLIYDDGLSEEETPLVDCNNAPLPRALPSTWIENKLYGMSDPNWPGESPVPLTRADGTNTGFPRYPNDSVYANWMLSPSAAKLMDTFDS
Sequence of D(1A) dopamine receptor (P21728 whole entry): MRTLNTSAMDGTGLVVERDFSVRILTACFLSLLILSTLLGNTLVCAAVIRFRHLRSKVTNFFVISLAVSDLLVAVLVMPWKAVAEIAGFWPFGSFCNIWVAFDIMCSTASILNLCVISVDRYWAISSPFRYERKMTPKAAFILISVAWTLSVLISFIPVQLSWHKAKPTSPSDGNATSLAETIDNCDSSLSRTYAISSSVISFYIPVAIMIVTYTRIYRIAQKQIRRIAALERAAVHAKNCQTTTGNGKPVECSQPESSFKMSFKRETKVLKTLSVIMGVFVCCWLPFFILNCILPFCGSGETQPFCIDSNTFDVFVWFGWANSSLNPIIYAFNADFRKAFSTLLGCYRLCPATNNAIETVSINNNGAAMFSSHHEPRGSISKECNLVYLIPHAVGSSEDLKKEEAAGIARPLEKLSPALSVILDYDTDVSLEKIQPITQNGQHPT

- IC50 [1]: > 1000 nM
- IC50 [2]: > 1000 nM
SMILES: CNC(=O)c1ccccc1Nc1nc(Nc2ccc3c(c2)C(C)CN(C)CC3)nc2ccccc12 (centres undefined)

- Ki [3]: < 10 nM
- Ki [4]: < 10 nM
SMILES: CN1CCc2ccccc2Cc2[nH]c3ccccc3c2CC1

- inhibition [5]: Active
- inhibition [6]: Active
- inhibition [7]: Active
- inhibition [8]: Active
- half-life [9]: 2.2 h
- clearance [10]: 33.3 mL/min/kg
- AUC(0-inf) [11]: 9070 ng·h/mL
- bioavailability [12]: 73%
- IC50 [14]: 30 nM
SMILES: CNC(=O)c1ccccc1Nc1nc(Nc2ccc3c(c2)C(c2ccccc2)CN(C)CC3)ncc1Cl (racemic)
- TGI [13]: inactive

- inhibition [5]: Active
- inhibition [6]: Active
- inhibition [7]: Active
- inhibition [8]: Active
- half-life [9]: 2.2 h
- clearance [10]: 33.3 mL/min/kg
- AUC(0-inf) [11]: 5500 ng·h/mL
- bioavailability [12]: 20%
- IC50 [16]: 7 nM
- IC50 [14]: 14 nM
SMILES: CNC(=O)c1ccccc1Nc1nc(Nc2ccc3c(c2)C(C)CN(C)CC3)ncc1Cl (racemic)
- inhibition in vivo at 1 mg/kg [15]: 60.6%

The remaining lines, values behind:

SMILES: CNC(=O)c1ccccc1Nc1nc(Nc2ccc3c(c2)C(C)CNCC3)ncc1Cl (centres undefined)
- IC50 [1]: 6.4 nM
- IC50 [2]: 7.9 nM

SMILES: CNC(=O)c1ccccc1Nc1nc(Nc2ccc3c(c2)C(C)CN(C)CC3)nc(F)c1Cl (centres undefined)
- IC50 [1]: > 1000 nM
- IC50 [2]: > 1000 nM

SMILES: CNC(=O)c1ccccc1Nc1nc(Nc2ccc3c(c2)C(C)CN(C)CC3)nc(NC)c1Cl (centres undefined)
- IC50 [1]: > 1000 nM
- IC50 [2]: > 1000 nM

SMILES: CNC(=O)c1ccccc1Nc1nc(Nc2ccc3c(c2)C(C)CN(C)CC3)nc(N2CCOCC2)c1Cl (centres undefined)
- IC50 [1]: > 1000 nM
- IC50 [2]: > 1000 nM

SMILES: CNC(=O)c1ccccc1Nc1nc(Nc2ccc3c(c2)C(C)CN(C)CC3)nc2sccc12 (centres undefined)
- IC50 [1]: > 1000 nM
- IC50 [2]: > 1000 nM

SMILES: CNC(=O)c1ccccc1Nc1nc(Nc2ccc3c(c2)C(C)CN(C)CC3)nc2cccnc12 (centres undefined)
- IC50 [1]: > 1000 nM
- IC50 [2]: > 1000 nM

SMILES: CC1CN(C)CCc2ccc(Nc3ncc(Cl)c(Nc4ccccc4C(=O)N4CCOCC4)n3)cc21 (centres undefined)
- IC50 [1]: > 1000 nM
- IC50 [2]: > 1000 nM
